Test system: 991263-137-R1-J2-PDC complex spheroid viability
Experiment: Anticancer human tumor 991263-137-R1-J2-PDC patient-derived colon adenocarcinoma cell line growth inhibition [POLQ]
Conditions: for IC50: curve of first compound; for viability, T/C: stronger effect = lower value
Procedure, shortened: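 Patient-derived tumour cells were co-cultured with HUVEC and mesenchymal stem cells as multicellular spheroids at 37 °C. They were treated with POLQ inhibitors (novobiocin, ART-558, RP6685) alone or combined with other agents. Top concentrations were at or near clinical Cmax (otherwise 10 microM; SN-38 at 1 microM), decreasing in half-log steps.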

[1] = second compound 0.0316 µM, first compound 0.0316 µM
[2] = second compound 0.0316 µM, first compound 0.1 µM
[3] = second compound 0.0316 µM, first compound 0.316 µM
[4] = second compound 0.0316 µM, first compound 1 µM
[5] = second compound 0.0316 µM, first compound 3.16 µM
[6] = second compound 0.0316 µM, first compound 10 µM
[7] = second compound 0.1 µM, first compound 0.0316 µM
[8] = second compound 0.1 µM, first compound 0.1 µM
[9] = second compound 0.1 µM, first compound 0.316 µM
[10] = second compound 0.1 µM, first compound 1 µM
[11] = second compound 0.1 µM, first compound 3.16 µM
[12] = second compound 0.1 µM, first compound 10 µM
[13] = second compound 0.316 µM, first compound 0.0316 µM
[14] = second compound 0.316 µM, first compound 0.1 µM
[15] = second compound 0.316 µM, first compound 0.316 µM
[16] = second compound 0.316 µM, first compound 1 µM
[17] = second compound 0.316 µM, first compound 3.16 µM
[18] = second compound 0.316 µM, first compound 10 µM
[19] = second compound 1 µM, first compound 0.0316 µM
[20] = second compound 1 µM, first compound 0.1 µM
[21] = second compound 1 µM, first compound 0.316 µM
[22] = second compound 1 µM, first compound 1 µM
[23] = second compound 1 µM, first compound 3.16 µM
[24] = second compound 1 µM, first compound 10 µM
[25] = second compound 3.16 µM, first compound 0.0316 µM
[26] = second compound 3.16 µM, first compound 0.1 µM
[27] = second compound 3.16 µM, first compound 0.316 µM
[28] = second compound 3.16 µM, first compound 1 µM
[29] = second compound 3.16 µM, first compound 3.16 µM
[30] = second compound 3.16 µM, first compound 10 µM
[31] = second compound 10 µM, first compound 0.0316 µM
[32] = second compound 10 µM, first compound 0.1 µM
[33] = second compound 10 µM, first compound 0.316 µM
[34] = second compound 10 µM, first compound 1 µM
[35] = second compound 10 µM, first compound 3.16 µM
[36] = second compound 10 µM, first compound 10 µM
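Also: spheroids exposed to compounds for 7 days before readout.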
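For viability, T/C in this document: 100% = DMSO vehicle control viability.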

## CCc1cc2c(N3CCc4c(cc(Cn5ccnc5)cc4-c4cn(C)nc4C(F)(F)F)C3=O)ccnc2c(OC)n1 + COC1C(OC(N)=O)C(O)C(Oc2ccc3c(O)c(NC(=O)c4ccc(O)c(CC=C(C)C)c4)c(=O)oc3c2C)OC1(C)C
Second compound 0.0316 µM
  IC50: > 10 µM
Second compound 0.1 µM
  IC50: > 10 µM
Second compound 0.316 µM
  IC50: > 10 µM
Second compound 1 µM
  IC50: > 10 µM
Second compound 3.16 µM
  IC50: > 10 µM
Second compound 10 µM
  IC50: > 10 µM
[1]
  viability, T/C: 99.5%
[2]
  viability, T/C: 104%
[3]
  viability, T/C: 110%
[4]
  viability, T/C: 87.6%
[5]
  viability, T/C: 102%
[6]
  viability, T/C: 86.7%
[7]
  viability, T/C: 104%
[8]
  viability, T/C: 110%
[9]
  viability, T/C: 87.4%
[10]
  viability, T/C: 100%
[11]
  viability, T/C: 90.8%
[12]
  viability, T/C: 81%
[13]
  viability, T/C: 105%
[14]
  viability, T/C: 108%
[15]
  viability, T/C: 97.1%
[16]
  viability, T/C: 104%
[17]
  viability, T/C: 95.4%
[18]
  viability, T/C: 99.9%
[19]
  viability, T/C: 101%
[20]
  viability, T/C: 107%
[21]
  viability, T/C: 93.9%
[22]
  viability, T/C: 86.3%
[23]
  viability, T/C: 102%
[24]
  viability, T/C: 90.7%
[25]
  viability, T/C: 99.2%
[26]
  viability, T/C: 122%
[27]
  viability, T/C: 113%
[28]
  viability, T/C: 96.4%
[29]
  viability, T/C: 106%
[30]
  viability, T/C: 107%
[31]
  viability, T/C: 113%
[32]
  viability, T/C: 106%
[33]
  viability, T/C: 108%
[34]
  viability, T/C: 109%
[35]
  viability, T/C: 101%
[36]
  viability, T/C: 91.3%

## COc1cc2cc(C(=O)CCC(=O)O)sc2cc1OC + COC1C(OC(N)=O)C(O)C(Oc2ccc3c(O)c(NC(=O)c4ccc(O)c(CC=C(C)C)c4)c(=O)oc3c2C)OC1(C)C
Second compound 0.0316 µM
  IC50: > 10 µM
Second compound 0.1 µM
  IC50: > 10 µM
Second compound 0.316 µM
  IC50: > 10 µM
Second compound 1 µM
  IC50: > 10 µM
Second compound 3.16 µM
  IC50: > 10 µM
Second compound 10 µM
  IC50: > 10 µM
[1]
  viability, T/C: 97%
[2]
  viability, T/C: 109%
[3]
  viability, T/C: 103%
[4]
  viability, T/C: 83.6%
[5]
  viability, T/C: 89.7%
[6]
  viability, T/C: 95.1%
[7]
  viability, T/C: 99.9%
[8]
  viability, T/C: 105%
[9]
  viability, T/C: 99.7%
[10]
  viability, T/C: 90.4%
[11]
  viability, T/C: 116%
[12]
  viability, T/C: 83%
[13]
  viability, T/C: 119%
[14]
  viability, T/C: 130%
[15]
  viability, T/C: 112%
[16]
  viability, T/C: 110%
[17]
  viability, T/C: 94%
[18]
  viability, T/C: 96.8%
[19]
  viability, T/C: 108%
[20]
  viability, T/C: 107%
[21]
  viability, T/C: 115%
[22]
  viability, T/C: 110%
[23]
  viability, T/C: 91.9%
[24]
  viability, T/C: 90.2%
[25]
  viability, T/C: 114%
[26]
  viability, T/C: 97.9%
[27]
  viability, T/C: 90.2%
[28]
  viability, T/C: 118%
[29]
  viability, T/C: 121%
[30]
  viability, T/C: 80.5%
[31]
  viability, T/C: 117%
[32]
  viability, T/C: 112%
[33]
  viability, T/C: 109%
[34]
  viability, T/C: 97.7%
[35]
  viability, T/C: 126%
[36]
  viability, T/C: 88.7%

## COc1ccc([C@@H](O)c2cc(-c3ncnc4cc(N5CCOCC5)ccc34)c(F)cc2Cl)nn1 + COC1C(OC(N)=O)C(O)C(Oc2ccc3c(O)c(NC(=O)c4ccc(O)c(CC=C(C)C)c4)c(=O)oc3c2C)OC1(C)C
Second compound 0.0316 µM
  IC50: 5.41 µM
Second compound 0.1 µM
  IC50: 4.12 µM
Second compound 0.316 µM
  IC50: 5.53 µM
Second compound 1 µM
  IC50: 2.94 µM
Second compound 3.16 µM
  IC50: 6.38 µM
Second compound 10 µM
  IC50: 6.09 µM
[1]
  viability, T/C: 107%
[2]
  viability, T/C: 96.3%
[3]
  viability, T/C: 90.8%
[4]
  viability, T/C: 76.2%
[5]
  viability, T/C: 71.7%
[6]
  viability, T/C: 31.5%
[7]
  viability, T/C: 99.8%
[8]
  viability, T/C: 98.3%
[9]
  viability, T/C: 84.6%
[10]
  viability, T/C: 91.7%
[11]
  viability, T/C: 55.6%
[12]
  viability, T/C: 30.9%
[13]
  viability, T/C: 82.7%
[14]
  viability, T/C: 107%
[15]
  viability, T/C: 88.5%
[16]
  viability, T/C: 71%
[17]
  viability, T/C: 70.5%
[18]
  viability, T/C: 33%
[19]
  viability, T/C: 95.3%
[20]
  viability, T/C: 107%
[21]
  viability, T/C: 96.8%
[22]
  viability, T/C: 70.7%
[23]
  viability, T/C: 51.9%
[24]
  viability, T/C: 32.6%
[25]
  viability, T/C: 94.3%
[26]
  viability, T/C: 101%
[27]
  viability, T/C: 96.7%
[28]
  viability, T/C: 85.6%
[29]
  viability, T/C: 79.9%
[30]
  viability, T/C: 32.2%
[31]
  viability, T/C: 88.1%
[32]
  viability, T/C: 103%
[33]
  viability, T/C: 94.8%
[34]
  viability, T/C: 111%
[35]
  viability, T/C: 67.1%
[36]
  viability, T/C: 37.1%

## O=C(Nc1ccc(O)c(NS(=O)(=O)c2ccc(F)cc2)c1)c1ccc(-c2ccccc2)cc1 + COC1C(OC(N)=O)C(O)C(Oc2ccc3c(O)c(NC(=O)c4ccc(O)c(CC=C(C)C)c4)c(=O)oc3c2C)OC1(C)C
Second compound 0.0316 µM
  IC50: > 10 µM
Second compound 0.1 µM
  IC50: > 10 µM
Second compound 0.316 µM
  IC50: > 10 µM
Second compound 1 µM
  IC50: > 10 µM
Second compound 3.16 µM
  IC50: > 10 µM
Second compound 10 µM
  IC50: > 10 µM
[1]
  viability, T/C: 87.8%
[2]
  viability, T/C: 111%
[3]
  viability, T/C: 112%
[4]
  viability, T/C: 93.5%
[5]
  viability, T/C: 89.3%
[6]
  viability, T/C: 105%
[7]
  viability, T/C: 110%
[8]
  viability, T/C: 119%
[9]
  viability, T/C: 113%
[10]
  viability, T/C: 79.6%
[11]
  viability, T/C: 110%
[12]
  viability, T/C: 93.5%
[13]
  viability, T/C: 93.9%
[14]
  viability, T/C: 112%
[15]
  viability, T/C: 92.8%
[16]
  viability, T/C: 106%
[17]
  viability, T/C: 93.1%
[18]
  viability, T/C: 92.8%
[19]
  viability, T/C: 119%
[20]
  viability, T/C: 101%
[21]
  viability, T/C: 100%
[22]
  viability, T/C: 109%
[23]
  viability, T/C: 109%
[24]
  viability, T/C: 96.3%
[25]
  viability, T/C: 101%
[26]
  viability, T/C: 103%
[27]
  viability, T/C: 91.2%
[28]
  viability, T/C: 79.1%
[29]
  viability, T/C: 111%
[30]
  viability, T/C: 79.6%
[31]
  viability, T/C: 96.5%
[32]
  viability, T/C: 112%
[33]
  viability, T/C: 103%
[34]
  viability, T/C: 104%
[35]
  viability, T/C: 102%
[36]
  viability, T/C: 91.5%

Source: PubChem BioAssay AID1963828 (Molecular Pharmacology Branch, DTP, NCI, 2024)
